Data set [1] is described as follows: Drug uptake in cortex of rhesus monkey brain at 89 +/- 3 MBq, iv administered as bolus dose for 1 min measured over 90 mins post injection by MicroPET image analysis. In kind it is ADME, organism-based, Macaca mulatta. The conditions noted are these: in vivo.
The test system of data set [2] is Striatum. The data set can be described thus: Drug uptake in striatum of rhesus monkey brain at 89 +/- 3 MBq, iv administered as bolus dose for 1 min measured over 90 mins post injection by MicroPET image analysis. In kind it is ADME, organism-based, Macaca mulatta. As to conditions: in vivo; call rule not given here.
The test system of data set [3] is Brain. The data set can be described thus: Drug uptake in brain of Wistar rat at 48.8 MBq, iv administered as bolus dose for 30 secs measured at 3 mins post wash out by MicroPET image analysis. The conditions noted are these: in vivo, 0.05 h. In kind it is ADME, organism-based.
For data set [4], the system named is Brain. The data set can be described thus: Drug uptake in brain of rhesus monkey at 89 +/- 3 MBq, iv administered as bolus dose for 1 min measured at 5 mins post wash out by MicroPET image analysis. In kind it is ADME, organism-based, Macaca mulatta. The conditions noted are these: in vivo.
Another data set relates to Cortex. The data set can be described thus: Drug uptake in cortex of Wistar rat brain at 48.8 MBq, iv administered as bolus dose for 30 secs measured over 120 mins post injection by MicroPET image analysis. In kind it is ADME, organism-based. As to conditions: in vivo.
The next data set relates to Cerebellum. The data set can be described thus: Drug uptake in cerebellum of Wistar rat brain at 48.8 MBq, iv administered as bolus dose for 30 secs measured over 120 mins post injection by MicroPET image analysis. In kind it is ADME, organism-based. As to conditions: in vivo.
The test system of data set [5] is Striatum. The data set can be described thus: Drug uptake in striatum of Wistar rat brain at 48.8 MBq, iv administered as bolus dose for 30 secs measured over 120 mins post injection by MicroPET image analysis. In kind it is ADME, organism-based. The conditions noted are these: in vivo.
A short description of data set [6]: Drug uptake in thalamus of rhesus monkey brain at 89 +/- 3 MBq, iv administered as bolus dose for 1 min measured over 90 mins post injection by MicroPET image analysis. As to conditions: in vivo. In kind it is ADME, organism-based, Macaca mulatta.
In the next data set the test system is Thalamus. The data set can be described thus: Drug uptake in thalamus of Wistar rat brain at 48.8 MBq, iv administered as bolus dose for 30 secs measured over 120 mins post injection by MicroPET image analysis. In kind it is ADME, organism-based. The conditions noted are these: in vivo.
Data set [7] can be described thus: Drug uptake in cerebellum of rhesus monkey brain at 89 +/- 3 MBq, iv administered as bolus dose for 1 min measured over 90 mins post injection by MicroPET image analysis. In kind it is ADME, organism-based, Macaca mulatta. The conditions noted are these: in vivo.

Drawing on ChEMBL document CHEMBL3580650, “Synthesis and Initial in Vivo Studies with [(11)C]SB-216763: The First Radiolabeled Brain Penetrative Inhibitor of GSK-3” (ACS Med Chem Lett, 2015), this text covers Drug uptake and SUV for one compound.

As for `[11CH3]n1cc(C2=C(c3ccc(Cl)cc3Cl)C(=O)NC2=O)c2ccccc21`, the Drug uptake result (in data set [1]; in the data set with Striatum [2]; in the data set on Cortex; in the data set with Cerebellum; with Striatum [5]; in [6]) was “Active” each time. The Drug uptake entry (in the data set with Thalamus; in data set [7]) was “Active” in each case. The SUV was determined as 2.5 in the data set with Brain [3] and 1.9 with Brain [4].
